Columns and labels:
mTOR [1] = experiment: mTOR/mTORC1 activity by phosphorylation of its substrates (4EBP1 S65, ULK1 S757, S6K1 T389) in U2OS cells; format: cell-based, human; details: U2OS cells
mTOR [2] = experiment: Immunoblot analysis of S6K1 (T389) phosphorylation in HeLa cells; format: cell-based, human; details: HeLa (WT) cells, 4 mM LLOMe for 30 min
[3] = test system: DCP1a puncta (P-bodies) in U2OS cells; experiment: HCM quantification of DCP1a puncta (P-body formation) in U2OS cells; format: cell-based, human; details: 2 mM LLOMe for 30 min
PKR = experiment: Immunoblot analysis of PKR (T446) phosphorylation in U2OS cells; format: cell-based, human; details: 2 mM LLOMe for 30 min
Source text: The level of phosphorylation of eIF2α (S51) is quantified based on three independent experiments. […] Red masks, computer-identified G3BP1 puncta. […] Ctrl, control (untreated cells). Data, means±SEM; HCM: n≥3 (each experiment: 500 valid primary objects/cells per Well, ≥5 Well s/sample). *p<0.05, **p<0.01, ANOVA. See also FIG. 2S.

[4] = test system: G3BP1 puncta in Huh7 cells; experiment: HCM quantification of G3BP1 puncta in Huh7 cells; format: cell-based, human; details: 2 mM LLOMe for 30 min
NUFIP2 = experiment: Confocal microscopy of NUFIP2 localisation in Huh7 cells; format: cell-based, human; details: 2 mM LLOMe for 30 min
Description: Huh7 cells Were treated with 2 mM LLOMe for 30 min and stained for endogenous G3BP1 and NUFIP2. Scale bar, 5 μm. […] The sequence in red (SEQ ID NO: 1), predicted NLS in NUFIP2, was deleted for generating NUFIP2ΔNLS. […] FIG. 4SG show the quantification by HCM of overlaps between mTOR and LAMP2 in Gal8WT^HeLa or Gal8KO^HeLa cells treated with 2 mM LLOMe for 30 min. White masks, algorithm-defined cell boundaries. Yellow masks, computer-identified overlap of mTOR and LAMP2. […] Red masks, computer-identified G3BP1 puncta. Ctrl, control (untreated cells). Data, means±SEM; HCM: n≥3 (each experiment: 500 valid primary objects/cells per Well, ≥5 Well s/sample). †p≥0.05 (not significant), **p<0.01, ANOVA. See also FIG. 3 and FIG. 4.

[5] = test system: G3BP1 puncta in BMM (bone-marrow-derived macrophages); experiment: HCM quantification of G3BP1 puncta in BMM; format: cell-based, murine; details: 2 mM LLOMe for 2 h
Description: Three groups of proteins are labeled (ESCRT components in green, autophagy factors in blue and stress granule components in purple). […] The dotted orange line indicates the significance cut-off (P<0.05). […] The significant increased proteins in LysoIP LC/MS/MS were analyzed by STRING functional protein association networks. […] Strength, Log 10(observed/expected) describes how large the enrichment effect is. […] TMEM192-2×FLAG, control. […] U20S cells Were treated with Earle's Balanced Salt Solution (EBSS), 4 mM LOMe, 2 mM LLOMe, 200 μM GPN, or 400 μg/mL silica for 30 min. White masks, algorithm-defined cell boundaries (primary objects); red masks, computer-identified G3BP1 puncta (target objects). […] The level of phosphorylation of eIF2α (S51) is quantified based on three independent experiments. […] The level of ATF4 and phosphorylation of eIF2α (S51) and 4EBP1 (S65) are quantified based on three independent experiments. […]
The inventors tested whether lysosomal damage induces SG formation using the conventional marker of SGs G3BP1 (Jain et al., 2016; Kedersha et al., 2005; Yang et al., 2020). […] For unbiased quantification, the inventors employed high content microscopy (HCM), which depends on epifluorescence mode to capture all cellular profiles in a volume. […] In all cell lines and primary cells tested, SG formation was observed upon lysosomal damage and quantified by HCM.

COC(=O)[C@H](CC(C)C)NC(=O)[C@@H](N)CC(C)C [LLOMe, L-leucyl-L-leucine methyl ester]
ULK1 phosphorylation by mTOR at Ser757 (mTOR [1]; 2 mM LLOMe for 30 min): diminished | mTOR activity as measured by 4EBP1 phosphorylation (mTOR [1]; 2 mM LLOMe, indicated time points): inhibition of mTOR | mTORC1 inactivation (4EBP1 S65), dose dependence (mTOR [1]; indicated dose of LLOMe for 30 min): mTORC1 inactivation in a dose-dependent manner | pT389 S6K levels (mTOR activity) (mTOR [2]): drop in pT389 S6K levels | P-body formation (DCP1a marker) [3]: did not induce P-body | PKR activation assessed by phosphorylation at Thr446 (PKR): PKR was activated | SG response (G3BP1 puncta) [4]: SG response was detected | NUFIP2 localisation upon lysosomal damage (NUFIP2): NUFIP2 translocated from the nucleus into the cytosol | SG formation (G3BP1 puncta) [5]: SGs Were detected

From patent publication US20240409935A1, “Atg8ylation coordinates stress granule formation and mTOR inactivation in response to lysosomal damage” (priority 2023, published 2024)
